From patent US5888494A, “Film-forming compositions of antihyperalgesic opiates and method of treating hyperalgesic and pruritic conditions therewith” (priority 1997, dated 1999)
Structures can show the parent of a compound that is named as a salt.

Tests used:
[1] = in vivo; hydrochloride; cited from earlier work
[2] = system: Compound 48/80-induced scratching; assay: mouse scratch model: antagonism of Compound 48/80-induced scratching (anti-pruritic activity); assay type: in vivo, male Swiss albino mice; conditions: sc, 0.5 h, Compound 48/80 challenge, 30 min observation
Description: Testing was performed in a mouse scratch model under blind conditions.
Groups of 8-10 male Swiss albino mice (Hilltop Lab Animals, Inc., Scottsdale, Pa.), weighing […], were used in the testing. They were housed under controlled temperature of 23°-25° C. Food and water were freely available. Before the experiments, the mice were weighted, put into individual boxes and allowed to acclimate for 30 min.
Vehicle used to dissolve the test compounds: 20% w/w cremafor EL.
The compounds to be tested for anti-pruritic activity were dissolved in the vehicle of 20% w/w cremafor EL.
100 μl of the vehicle (3-5 doses, n=8-10) was injected s.c. into the back of the neck of mice 20 min. before challenging them with 100 μl of Compound 48/80 (2 mg/ml; […]) injected s.c. into the back of the neck.
To each mouse of a group of 8-10 mice previously subjected to the standard challenge various doses of the compounds, to be tested for anti-pruritic activity, were administered s.c. into the back of the neck.
For each group of 8-10 mice, the mean values for scratching were no to relative % antagonism of scratching and then plotted vs. dose of test compounds. Interval estimates of mean A50 were determined by nonlinear regression analysis (Kaleida Graph) and mean % inhibition of scratching was calculated.

[3] = in vivo, iv; cited from earlier work

CN(C)C(=O)C(CCN1CCC(O)(c2ccc(Cl)cc2)CC1)(c1ccccc1)c1ccccc1 [Loperamide HCl, 4-(p-chlorophenyl)-4-hydroxy-N-N-dimethyl-α,α-diphenyl-1-piperidinebutyramide hydrochloride]
CNS effects [1]: completely free of the undesirable CNS effects

OC1(Cc2ccc(Cl)cc2)CCN(CCC(c2ccccc2)(c2ccccc2)c2ccccc2)CC1 [(2), 1-(3,3,3-triphenylpropyl)-4-hydroxy-4-p-chlorobenzylpiperidine]
inhibition at 1 mg/kg ([2]; 1.0 mg/kg): 35% | inhibition at 2.5 mg/kg [2]: 68% | inhibition at 5 mg/kg [2]: 94%

CN1CC[C@]23c4c5ccc(O)c4O[C@H]2[C@@H](O)C=C[C@H]3[C@H]1C5 [morphine]
general itching, incidence [3]: about 1 % of patients

O=C(O)C1(c2ccccc2)CCN(CCC(c2ccccc2)(c2ccccc2)c2ccccn2)CC1 [(1), 1-[3,3-diphenyl-3-(2-pyridyl)propyl]-4-phenyl-4-piperidinecarboxylic acid hydrochloride]
inhibition at 2.5 mg/kg [2]: 32% | inhibition at 5 mg/kg [2]: 65% | inhibition at 10 mg/kg ([2]; 10.0 mg/kg): 83%
